System: APO-GDH
Experiment: Homogeneous optical and electrochemical assay with GDH and PQQ
Format: biochemical
Settings: APO-GDH 1 μM, 2 mM CaCl2, 40 mM glucose, 50 μM PMS, redox indicator (DCIP, resazurin or thionine)
Method: Homogeneous Optical and Electrochemical Assay for DNA with GDH and PQQ (See FIG. 8) The PQQ solutions (variable concentrations) included APO-GDH (1 μM), 2 mM CaCl2, and 40 mM Glucose. 50 μM PMS and a redox indicator (0.1-0.2 mM DCIP, 0.025 mM resazurin, or 0.05 mM thionine) were also added. PQQ at 0.1 nM was detectable.

## O=C(O)c1cc(C(=O)O)c2c(n1)C(=O)C(=O)c1cc(C(=O)O)[nH]c1-2 [PQQ, pyrroloquinoline quinone]
  PQQ concentration detectable (GDH enzyme activity): 0.1 nM

— patent publication US20060199241A1, “Electrochemically and optically monitoring cleaving enzyme activity” (priority 2005, published 2006)
